Experimental findings from publication PMC7180948, “New Insights into 4-Anilinoquinazolines as Inhibitors of Cardiac Troponin I–Interacting Kinase (TNNi3K)” (Molecules, 2020) are described below.

Common to all, as to test: biochemical
What all share (parameters): KINOMEscan competition binding panel (Eurofins DiscoverX), single concentration, % inhibition
Conditions in all cases: read-out: 7 at 1 µM % inhibition

The target in test [1] is RAF1 (Homo sapiens, UniProt P04049). The method, boiled down: (§1)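 Binding was profiled in the KINOMEscan panel of over 400 human kinases, with each compound tested at a single concentration of 1 µM to map selectivity.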
For test [2], the target named is RIOK1 (Homo sapiens, UniProt Q9BRS2). The method in brief:
as §1

Test [3] addresses CDK8 (Homo sapiens, UniProt P49336). The method in brief: as §1
Test [4] concerns the target INSR (Homo sapiens, UniProt P06213). The method in brief:
as §1

Test [5] deals with TBK1 (Homo sapiens, UniProt Q9UHD2). The method in brief:
as §1

Test [6] concerns the target LCK (Homo sapiens, UniProt P06239). The method, boiled down: as §1
Test [7] has as its target KIT(V559D,V654A) (Homo sapiens, UniProt P10721, V559D/V654A). The method, boiled down:
as §1

For test [8], the target named is GRK1 (Homo sapiens, UniProt Q15835). The method, boiled down: as §1
For test [9], the target named is T1, TYK2(JH1domain-catalytic) (Homo sapiens, UniProt P29597).
T1 construct: JH1domain-catalytic
The method, boiled down:
as §1

The target in test [10] is MELK (Homo sapiens, UniProt Q14680). The method in brief:
as §1

Test [11] deals with GSK3B (Homo sapiens, UniProt P49841). The method in brief: as §1
Test [12] concerns the target BMPR1A (Homo sapiens, UniProt P36894). The method, boiled down: as §1
The target of test [13] is LRRK2(G2019S) (Homo sapiens, UniProt Q5S007, G2019S). The method in brief: as §1
The target of test [14] is FLT3(ITD) (Homo sapiens, UniProt P36888, ITD). The method, boiled down:
as §1

The target in test [15] is T2, DCAMKL3 (Homo sapiens, UniProt Q9C098).
T2 construct: gene DCLK3
The method in brief:
as §1

Test [16] concerns the target ERBB2 (Homo sapiens, UniProt P04626). The method, boiled down:
as §1

Test [17] has as its target ROCK2 (Homo sapiens, UniProt O75116). The method in brief:
as §1

Test [18] concerns the target T3, MRCKB (Homo sapiens, UniProt Q9Y5S2).
T3 construct: gene CDC42BPB
The method in brief:
as §1

For test [19], the target named is T4, MLK3 (Homo sapiens, UniProt Q16584).
T4 construct: gene MAP3K11
The method in brief: as §1

Test [20] addresses BTK (Homo sapiens, UniProt Q06187). The method, boiled down: as §1
The target in test [21] is T5, AMPK-alpha1 (Homo sapiens, UniProt Q13131).
T5 construct: gene PRKAA1
The method, boiled down:
as §1

The target of test [22] is ITK (Homo sapiens, UniProt Q08881). The method, boiled down:
as §1

The target of test [23] is PIK3CA(I800L) (Homo sapiens, UniProt P42336, I800L). The method in brief: as §1
Test [24] addresses EGFR(L858R,T790M) (Homo sapiens, UniProt P00533, L858R/T790M). The method in brief:
as §1

Chain of BMPR1A (P36894 whole entry): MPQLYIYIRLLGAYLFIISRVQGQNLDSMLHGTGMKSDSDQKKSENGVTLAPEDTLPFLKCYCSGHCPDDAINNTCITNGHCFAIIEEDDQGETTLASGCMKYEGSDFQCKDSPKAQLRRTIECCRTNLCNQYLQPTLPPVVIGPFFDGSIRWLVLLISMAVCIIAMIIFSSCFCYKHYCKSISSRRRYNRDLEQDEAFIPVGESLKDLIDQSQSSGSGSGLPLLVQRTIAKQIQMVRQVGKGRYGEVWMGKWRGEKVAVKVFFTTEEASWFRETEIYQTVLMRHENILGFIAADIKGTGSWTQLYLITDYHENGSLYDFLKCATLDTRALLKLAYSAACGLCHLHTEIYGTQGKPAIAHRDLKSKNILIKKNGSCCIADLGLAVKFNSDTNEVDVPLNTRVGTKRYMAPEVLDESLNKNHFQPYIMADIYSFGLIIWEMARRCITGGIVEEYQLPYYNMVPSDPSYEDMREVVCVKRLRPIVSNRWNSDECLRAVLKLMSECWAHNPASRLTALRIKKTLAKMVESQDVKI
Chain of EGFR(L858R,T790M) (P00533 whole entry T790M/L858R): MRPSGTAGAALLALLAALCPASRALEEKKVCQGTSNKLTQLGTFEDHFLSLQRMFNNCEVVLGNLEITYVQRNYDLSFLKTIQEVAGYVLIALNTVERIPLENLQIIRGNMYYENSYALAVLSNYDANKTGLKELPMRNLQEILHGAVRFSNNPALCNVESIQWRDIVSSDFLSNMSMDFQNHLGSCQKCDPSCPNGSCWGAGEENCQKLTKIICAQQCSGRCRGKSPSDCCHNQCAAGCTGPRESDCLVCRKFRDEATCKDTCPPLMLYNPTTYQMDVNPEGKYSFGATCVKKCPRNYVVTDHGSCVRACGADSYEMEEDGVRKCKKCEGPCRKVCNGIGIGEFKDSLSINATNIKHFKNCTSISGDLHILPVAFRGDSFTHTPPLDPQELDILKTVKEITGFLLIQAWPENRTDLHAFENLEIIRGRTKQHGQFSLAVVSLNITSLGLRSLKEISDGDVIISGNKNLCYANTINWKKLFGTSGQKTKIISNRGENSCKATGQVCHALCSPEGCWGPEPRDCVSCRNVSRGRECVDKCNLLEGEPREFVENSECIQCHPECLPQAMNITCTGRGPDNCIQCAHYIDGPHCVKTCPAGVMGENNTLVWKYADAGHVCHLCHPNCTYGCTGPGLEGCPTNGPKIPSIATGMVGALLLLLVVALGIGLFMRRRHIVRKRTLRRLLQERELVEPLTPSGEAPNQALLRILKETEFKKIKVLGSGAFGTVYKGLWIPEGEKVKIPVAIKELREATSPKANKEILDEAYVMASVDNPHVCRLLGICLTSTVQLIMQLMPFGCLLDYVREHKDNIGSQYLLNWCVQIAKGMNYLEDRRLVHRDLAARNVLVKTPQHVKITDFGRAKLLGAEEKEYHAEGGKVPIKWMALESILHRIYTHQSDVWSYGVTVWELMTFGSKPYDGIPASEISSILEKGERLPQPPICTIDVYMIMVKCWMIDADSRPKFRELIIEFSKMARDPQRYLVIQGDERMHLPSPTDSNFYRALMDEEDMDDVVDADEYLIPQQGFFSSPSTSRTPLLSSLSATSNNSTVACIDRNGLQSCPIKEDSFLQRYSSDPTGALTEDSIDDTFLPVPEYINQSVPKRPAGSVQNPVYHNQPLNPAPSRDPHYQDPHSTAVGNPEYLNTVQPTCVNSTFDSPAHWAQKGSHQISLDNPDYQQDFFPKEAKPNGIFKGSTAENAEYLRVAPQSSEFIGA
Chain of MELK (Q14680 whole entry): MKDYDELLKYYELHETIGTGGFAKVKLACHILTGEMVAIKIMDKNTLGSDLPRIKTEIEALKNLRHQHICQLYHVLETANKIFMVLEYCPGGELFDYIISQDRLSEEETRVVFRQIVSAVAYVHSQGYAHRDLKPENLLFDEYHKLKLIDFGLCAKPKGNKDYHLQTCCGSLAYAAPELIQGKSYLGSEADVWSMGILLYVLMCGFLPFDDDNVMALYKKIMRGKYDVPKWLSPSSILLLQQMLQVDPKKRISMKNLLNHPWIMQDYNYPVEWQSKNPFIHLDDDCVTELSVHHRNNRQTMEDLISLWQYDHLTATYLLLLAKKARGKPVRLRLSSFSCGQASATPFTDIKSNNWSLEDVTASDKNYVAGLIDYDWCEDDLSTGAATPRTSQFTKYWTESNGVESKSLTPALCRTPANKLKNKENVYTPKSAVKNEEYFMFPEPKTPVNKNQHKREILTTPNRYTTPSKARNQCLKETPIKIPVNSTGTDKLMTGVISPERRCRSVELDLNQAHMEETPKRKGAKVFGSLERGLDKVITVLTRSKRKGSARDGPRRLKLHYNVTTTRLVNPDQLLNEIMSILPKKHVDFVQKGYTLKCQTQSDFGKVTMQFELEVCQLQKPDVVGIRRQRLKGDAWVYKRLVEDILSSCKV
Chain of CDK8 (P49336 whole entry): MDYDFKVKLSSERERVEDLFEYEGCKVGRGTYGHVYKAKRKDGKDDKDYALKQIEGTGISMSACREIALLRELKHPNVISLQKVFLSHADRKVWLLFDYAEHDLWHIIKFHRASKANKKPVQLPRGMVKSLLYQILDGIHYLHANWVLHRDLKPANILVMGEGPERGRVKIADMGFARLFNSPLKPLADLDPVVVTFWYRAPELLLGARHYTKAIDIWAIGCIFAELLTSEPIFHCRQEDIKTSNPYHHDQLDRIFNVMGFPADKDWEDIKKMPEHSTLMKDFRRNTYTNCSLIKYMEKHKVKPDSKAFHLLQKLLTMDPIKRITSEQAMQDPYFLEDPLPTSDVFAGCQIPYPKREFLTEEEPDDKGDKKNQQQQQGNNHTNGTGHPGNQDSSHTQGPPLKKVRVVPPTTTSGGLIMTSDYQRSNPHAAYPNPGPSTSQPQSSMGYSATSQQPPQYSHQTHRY
Chain of KIT(V559D,V654A) (P10721 whole entry V559D/V654A): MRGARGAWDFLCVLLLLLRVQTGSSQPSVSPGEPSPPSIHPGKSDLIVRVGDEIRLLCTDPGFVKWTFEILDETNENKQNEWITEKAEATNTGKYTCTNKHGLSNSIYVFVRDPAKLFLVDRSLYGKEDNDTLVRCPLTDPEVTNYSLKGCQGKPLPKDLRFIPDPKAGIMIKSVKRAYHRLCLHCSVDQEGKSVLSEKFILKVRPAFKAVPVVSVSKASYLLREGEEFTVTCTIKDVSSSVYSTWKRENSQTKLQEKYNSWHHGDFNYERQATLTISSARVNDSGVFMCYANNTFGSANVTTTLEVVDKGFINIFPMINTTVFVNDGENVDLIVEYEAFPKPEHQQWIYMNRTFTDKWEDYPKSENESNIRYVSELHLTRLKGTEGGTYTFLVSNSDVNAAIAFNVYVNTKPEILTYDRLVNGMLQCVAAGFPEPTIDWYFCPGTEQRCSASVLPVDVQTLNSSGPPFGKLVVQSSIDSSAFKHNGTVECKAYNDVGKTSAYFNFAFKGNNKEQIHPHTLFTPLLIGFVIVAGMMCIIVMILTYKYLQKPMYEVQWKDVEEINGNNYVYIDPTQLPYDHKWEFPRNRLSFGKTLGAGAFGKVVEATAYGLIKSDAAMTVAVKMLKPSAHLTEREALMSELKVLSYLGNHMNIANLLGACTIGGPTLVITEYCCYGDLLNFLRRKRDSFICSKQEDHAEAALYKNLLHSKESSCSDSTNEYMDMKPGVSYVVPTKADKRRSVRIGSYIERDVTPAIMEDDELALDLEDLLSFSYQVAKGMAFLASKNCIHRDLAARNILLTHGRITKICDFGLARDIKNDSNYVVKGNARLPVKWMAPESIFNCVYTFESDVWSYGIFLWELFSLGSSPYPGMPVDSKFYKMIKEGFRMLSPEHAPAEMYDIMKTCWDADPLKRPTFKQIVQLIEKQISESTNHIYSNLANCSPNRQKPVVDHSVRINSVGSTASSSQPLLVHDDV
Chain of FLT3(ITD) (P36888 564-993, change not shown): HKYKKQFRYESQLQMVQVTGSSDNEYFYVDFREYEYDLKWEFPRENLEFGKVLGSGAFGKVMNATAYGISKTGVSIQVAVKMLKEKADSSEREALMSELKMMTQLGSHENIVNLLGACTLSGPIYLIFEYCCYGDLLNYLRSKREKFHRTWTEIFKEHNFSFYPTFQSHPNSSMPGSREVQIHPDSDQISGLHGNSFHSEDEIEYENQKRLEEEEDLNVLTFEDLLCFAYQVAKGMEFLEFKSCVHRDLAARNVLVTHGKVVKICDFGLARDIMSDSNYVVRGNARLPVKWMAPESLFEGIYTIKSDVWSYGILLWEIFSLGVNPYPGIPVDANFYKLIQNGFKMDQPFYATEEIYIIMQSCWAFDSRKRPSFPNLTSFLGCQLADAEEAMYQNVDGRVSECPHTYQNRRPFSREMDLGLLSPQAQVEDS
Chain of RIOK1 (Q9BRS2 whole entry): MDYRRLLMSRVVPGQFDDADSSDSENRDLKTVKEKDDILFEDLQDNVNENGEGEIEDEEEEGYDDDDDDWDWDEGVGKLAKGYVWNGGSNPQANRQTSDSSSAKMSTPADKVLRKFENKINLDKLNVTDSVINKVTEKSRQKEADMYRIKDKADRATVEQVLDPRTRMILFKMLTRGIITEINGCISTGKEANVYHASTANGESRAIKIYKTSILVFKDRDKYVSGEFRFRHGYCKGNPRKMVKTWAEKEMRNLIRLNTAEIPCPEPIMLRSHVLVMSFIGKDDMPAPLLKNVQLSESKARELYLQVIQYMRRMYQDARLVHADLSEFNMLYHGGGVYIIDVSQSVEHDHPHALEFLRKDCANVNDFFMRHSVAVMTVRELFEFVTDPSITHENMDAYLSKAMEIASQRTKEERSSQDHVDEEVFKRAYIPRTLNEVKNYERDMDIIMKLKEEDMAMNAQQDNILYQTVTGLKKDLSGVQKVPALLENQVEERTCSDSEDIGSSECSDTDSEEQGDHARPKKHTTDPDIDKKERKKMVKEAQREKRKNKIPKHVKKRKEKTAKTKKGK

As for `CNS(=O)(=O)c1ccc(N(C)C)c(Nc2ncnc3cc(OC)c(OC)cc23)c1` [compound 7, 3-((6,7-dimethoxyquinazolin-4-yl)amino)-4-(dimethylamino)-N-methylbenzenesulfonamide], the inhibition at 1 µM in [1] is 23%; in test [2] it was 0%; in [3] it was 0%; in [4], 17%; in test [5], 0%; in test [6] it was 63%. For the same molecule, the inhibition at 1 µM in test [7] is 0%; in test [8] it was 0%; in test [9] it was 0%; in test [10], 17%; in test [11], 0%; in test [12] it was 0%. Further, the inhibition at 1 µM in test [13] came out at 23%; in [14], 0%; in test [15] it was 15%; in test [16], 0%; in [17], 0%; in test [18], 0%. In addition, the inhibition at 1 µM in [19] was 0%; in [20], 54%; in test [21], 0%; in test [22] it was 0%; in test [23] it was 56%; in test [24], 7%.

Usually inhibition stands for how much of the control response was suppressed.
